Source: US9120946B2, “Active energy ray curing type composition, container that accommodates composition, inkjet discharging device having container, and cured matter” (RICOH COMPANY, LTD., priority 2013, dated 2015)

How the values were obtained:
female mice = assay: skin sensitization test based on the LLNA (Local Lymph Node Assay), SI value by BrdU intake; format: in vivo; conditions: test substance 50.0 W/v % in acetone/olive oil 4:1, 25 μL to both auricles once a day for 3 days, SI less than 3 = negative
Procedure: The individuals remaining after the categorization were excluded from the test.
The test substance was weighed in a measuring flask, and the volume of the test substance was adjusted to 1 mL with the medium. The thus-prepared test substance preparation was placed in a light-shielded airtight container (made of glass).
This treatment was performed once a day for three consecutive days.
The surrounding tissue of each auricular lymph node was removed, and the auricular lymph nodes from both the auricles were collectively weighed.
After returning the auricular lymph nodes to room temperature, the auricular lymph nodes were mashed with the gradual addition of physiological saline, and suspended therein. The thus-obtained suspension was filtrated and thereafter dispensed into the wells of a 96-well microplate, with 3 wells being used per individual. The thus-dispensed suspensions were measured for intake of BrdU by the ELISA method. […] A multiplate reader (FLUOSTAR OPTIMA, product of BMG LABTECH Inc.) was used to measure the absorbance of each well (OD: 370 nm to 492 nm, the intake of BrdU), and the average of the absorbance of the 3 wells for each individual was used as the measurement of BrdU for the individual.

[1] = evaluation in Material Safety Data Sheet; cited from earlier work

Compound	SI values in LLNA test (female mice)	skin sensitization in MSDS [1]
polypropylene glycol diacrylate [a5]	1.5	–
C=C(C)C(=O)OCCOCCOC(=O)C(=C)C [a1, diethyleneglycol dimethacrylate]	1.1	–
caprolactone-modified dipentaerythritol hexaacrylate [a2]	–	Negative in MSDS
